From US8093286B2, “Methods for treatment with bucindolol based on genetic targeting” (The Regents of the University of Colorado, a body corporate, priority 2004, dated 2012) come the findings set out here.

In data set [1] the test system is systemic venous norepinephrine. Kind of data set: BEST trial, peripheral venous norepinephrine and haemodynamic changes. Format: in vivo, human. The note with it: for NE change @ 3 mos, mean ± SD: Bucindolol Inter subgroup (Δ NE −244.5, ≦ +145), hydrochloride. As for the experimental part: (§1) Because of an initial delay in setting up the procedures, collection of blood samples for norepinephrine in all randomized patients began 6 months after trial initiation.
(§2) Peripheral venous NE samples were drawn at baseline, 3 and 12 months by inserting a 21 gauge butterfly needle into an arm vein and placing the subject in a quiet room in a supine position for 30 minutes. The initial 3 ml of blood was discarded, and then 5 ml of blood was withdrawn and immediately transferred to pre-chilled 5 ml tubes containing EDTA. Within 30 min plasma was separated and frozen at −70° C. Sites shipped samples on dry ice to a central laboratory (LabCorp, Raritan, N.J.) every 3 mo, where the samples were stored at −85° C. and assayed within 3 weeks. NE was measured by HPLC-electrochemical detection using the Bio-Rad HPLC method (Bio-Rad Laboratories Hercules, Calif.). Quality control included re-measuring all samples with initial values of <200 pg/ml or >2000 pg/ml, from the 2nd stored tube; and routinely (every 20 samples) measuring known amounts.
(§3) Means and standard deviations (SD) for continuous data, and proportions or percentages for categorical data are presented. T-tests or Wilcoxon rank sum tests were used for continuous data, and chi-square or Fisher's exact test for categorical data. An alpha level of 0.05 (2 tailed, unadjusted) was used to indicate statistical significance.

Experiment in data set [2]: as above
The format is in vivo, human. As for the experimental part:
as §1, §2, §3

Counter-ions that a name gives are not always drawn.

With `CC(C)(Cc1c[nH]c2ccccc12)NCC(O)COc1ccccc1C#N` (stereo not drawn) [bucindolol, (2-{2-hydroxy-3{{2-(3-indolyl)-1,1-dimethylethyl}amino}propoxy}-benzonitrile hydrochloride)], the “decrease in norepinephrine relative to changes in the placebo group” value in data set [1] (3 months) was 19%; in data set [1] (12 months) it was 13%. Besides, the “average decrease in norepinephrine at 3 months” value in data set [1] (153 bucindolol subjects at higher mortality risk with norepinephrine reduction) is 529 pg/mL. For the same compound, the figures for the “Change in SBP @ 12 mos” value in data set [1] (Bucindolol Incr subgroup), in data set [1] (Bucindolol Inter subgroup) and in data set [1] (Bucindolol Redxn subgroup) were −0.9 ± 16.8 mm Hg, 0.7 ± 18.0 mm Hg and 2.7 ± 20.1 mm Hg, respectively. In addition, the figures for the “HR (heart rate) change @ 12 mos” value in data set [1] (Bucindolol Incr subgroup) and in data set [1] (Bucindolol Inter subgroup) were −8.1 ± 14.6 BPM and −7.9 ± 13.5 BPM, respectively. Also, the “Change in LVEF @ 3 mos” value in data set [1] (Bucindolol Inter subgroup) is recorded as 5.7 ± 7.9 EFU. Besides, the “Change in SBP @ 3 mos” value in data set [1] (Bucindolol Inter subgroup) is −0.5 ± 15.7 mm Hg; in data set [1] (Bucindolol Redxn subgroup), −0.7 ± 18.2 mm Hg. In data set [1] (Bucindolol Inter subgroup), the “HR (heart rate) change @ 3 mos” value is −9.7 ± 12.4 BPM. Besides, the “NE change @ 3 mos, mean ± SD” value in data set [1] (n = 551) is -44 pg/mL; in data set [1] (n = 551, listed as Bucindolol), -44 ± 103 pg/mL. Moreover, in data set [1] (Bucindolol Inter subgroup, n = 551), the “NE change @ 12 mos, mean ± SD” value turned out to be 17.5 ± 216 pg/mL. Also, in data set [1] (NE reduction ≧244.5 pg/ml), the “proportion of bucindolol-treated patients with marked norepinephrine reduction at 3 months” value turned out to be 18%. The “average reduction in norepinephrine at 3 months (SEM)” value was 153 ± 57 pg/mL in data set [1] (α2c DEL 322-325 carriers) and 50 ± 13 pg/mL in data set [1] (α2c WT/WT patients). Further, the “Change in LVEF @ 12 mos” value is on record as 7.1 ± 8.8 EFU in data set [2] (Bucindolol Incr subgroup), 7.3 ± 10.4 EFU in data set [2] (Bucindolol Inter subgroup) and 8.8 ± 9.2 EFU in data set [2] (Bucindolol Redxn subgroup).
